Oligonucleotides are written 5' to 3', each unit as a sugar letter and its base; * is a phosphorothioate linkage, no mark a phosphodiester; rarer units and linkages stand in square brackets, end groups in braces. Plain capitals give the bases only. {NH2-C6} = C6 amine reactive group for conjugation; {Alk-cyHex} = alkyne-cyclohexyl conjugation group; [invAb] = inverted abasic deoxyribose residue; [C6-SS-C6] = C6-disulfide-C6 linker; d = 2'-deoxy (DNA); m = 2'-O-methyl; f = 2'-fluoro
Tested on: myostatin mRNA
Test: MSTN expression in triceps of mice by qPCR TaqMan assay (Example 7)
Assay type: in vivo
Settings: Day 22, mice, 3 mg/kg single injection on Day 1, n=4
Procedure: On Study Day 1, mice were injected with either isotonic saline (vehicle control) or 3 mg/kg (mpk) of RNAi agent formulated in isotonic saline according to the following dosing Groups:
The RNAi agents in Example 7 were synthesized having nucleotide sequences directed to target the MSTN gene, and groups 1 and 3 included a functionalized amine reactive group (NH2-C6) at the 5′ terminal end of the sense strand to facilitate conjugation to L4 which could then be conjugated to the small molecule targeting ligand Compound 45b. Group 2 included an (Alk-cyHex)s (see Table 28 for structure details) which was conjugated to the small molecule targeting ligand Compound 45b. The myostatin RNAi agents further included a PEG48+C22 PK/PD modulator, which was linked to the 3′ end of the sense strand.
Four (4) mice were dosed in each Group (n=4). Mice were sacrificed on study day 22, and total myostatin mRNA was isolated from the triceps. Triceps were harvested from right front limb. Each sample was snap-frozen in percellys tubes and stored in a −80° C. freezer until assays were completed. Relative MSTN expression was determined by qPCR TaqMan Assay on muscle tissue.

Substance	Average relative MSTN expression, Relative Expression
AD06326: AS: usGfsusUfaCfagcaaGfaUfcAfuGfgCfsc; SS: (NH2-C6)s(invAb)sggccaugaUfCfUfugcuguaacas(invAb)(C6-SS-C6)dT (antisense mU*fG*mU*fUmAfCmAmGmCmAmAfGmAfUmCfAmUfGmGfC*mC; sense {NH2-C6}*[invAb]*mGmGmCmCmAmUmGmAfUfCfUmUmGmCmUmGmUmAmAmCmA*[invAb][C6-SS-C6]dT; siRNA; Compound 45b ligand via L4 on sense 5' amine, PEG48+C22 at sense 3')	0.296
AD06912: AS: usGfsusUfaCfagcaaGfaUfcAfuGfgCfsc; SS: (Alk-cyHex)s(invAb)sggccaugaUfCfUfugcuguaacas(invAb)(C6-SS-C6)dT (antisense mU*fG*mU*fUmAfCmAmGmCmAmAfGmAfUmCfAmUfGmGfC*mC; sense {Alk-cyHex}*[invAb]*mGmGmCmCmAmUmGmAfUfCfUmUmGmCmUmGmUmAmAmCmA*[invAb][C6-SS-C6]dT; siRNA; Compound 45b ligand on sense 5' Alk-cyHex, PEG48+C22 at sense 3')	0.253
AD06916: AS: usGfsusUfaCfagcaaGfaUfcAfuGfgCfsc; SS: (NH2-C6)s(invAb)sggccaugaUfCfUfugcuguaacas(invAb)s(C6-SS-C6)dT (antisense mU*fG*mU*fUmAfCmAmGmCmAmAfGmAfUmCfAmUfGmGfC*mC; sense {NH2-C6}*[invAb]*mGmGmCmCmAmUmGmAfUfCfUmUmGmCmUmGmUmAmAmCmA*[invAb]*[C6-SS-C6]dT; siRNA; Compound 45b ligand via L4 on sense 5' amine, PEG48+C22 at sense 3')	0.295

From patent US20240175019A1, “Skeletal Muscle Delivery Platforms and Methods of Use” (Arrowhead Pharmaceuticals, Inc., priority 2020, published 2024)
